The values that follow are results of earlier work, collected in article PMC7029871, “Development and validation of a sensitive LC-MS/MS method for the quantitation of IMB-YH-4py5-2H, an antituberculosis candidate, and its application to the pharmacokinetic study” (PLoS ONE, 2020).

Like-named read-outs stand apart in the source and are kept apart here.

The test system of this series is Mycobacterium tuberculosis strains. To be noted: cited from earlier work.

In the case of `CN(C)C(=O)/C=C/C(=O)c1ccc(-c2ccncc2)cc1.Cl` [IMB-YH-4py5-2H, (E)-N,N-dimethyl-4-oxo-4-(4-(pyridin-4-yl)phenyl)but-2-enamide hydrochloride], the MICs (sensitive and resistant M. tuberculosis strains, method and reference not given) is 0.25 to 0.5 µg/mL.

Consider `COC(=O)/C=C/C(=O)c1ccc(OC)cc1` [YH-8, (E)-Methyl-4-aryl-4-oxabut-2-enoate, reference compound], for which the MICs (drug-sensitive and drug-resistant M. tuberculosis strains) was 0.25 to 1 µg/mL.
